Results on 27 compounds are retold here after patent US9730937B2, “RAF kinase modulator compounds and methods of use thereof” (AMBIT BIOSCIENCES CORPORATION, priority 2008, dated 2017).

SMILES strings stand for the structures. Counter-ions that a name gives are not always drawn. Like-named read-outs stand apart in the source and are kept apart here.

One experiment concerns the target mutant BRAF kinase (Homo sapiens (Human), UniProt P15056, V600E). Particulars: read-out: BRAF V600E Kd, class symbols.
In experiment [1] the test system is panel of 290 distinct kinases (321 in the larger panel), excluding mutant variants. Particulars: kinase selectivity score, class symbols.
Setting [2] is: value marked * (larger kinase panel).

mutant BRAF kinase, sequence (P15056 whole entry V600E): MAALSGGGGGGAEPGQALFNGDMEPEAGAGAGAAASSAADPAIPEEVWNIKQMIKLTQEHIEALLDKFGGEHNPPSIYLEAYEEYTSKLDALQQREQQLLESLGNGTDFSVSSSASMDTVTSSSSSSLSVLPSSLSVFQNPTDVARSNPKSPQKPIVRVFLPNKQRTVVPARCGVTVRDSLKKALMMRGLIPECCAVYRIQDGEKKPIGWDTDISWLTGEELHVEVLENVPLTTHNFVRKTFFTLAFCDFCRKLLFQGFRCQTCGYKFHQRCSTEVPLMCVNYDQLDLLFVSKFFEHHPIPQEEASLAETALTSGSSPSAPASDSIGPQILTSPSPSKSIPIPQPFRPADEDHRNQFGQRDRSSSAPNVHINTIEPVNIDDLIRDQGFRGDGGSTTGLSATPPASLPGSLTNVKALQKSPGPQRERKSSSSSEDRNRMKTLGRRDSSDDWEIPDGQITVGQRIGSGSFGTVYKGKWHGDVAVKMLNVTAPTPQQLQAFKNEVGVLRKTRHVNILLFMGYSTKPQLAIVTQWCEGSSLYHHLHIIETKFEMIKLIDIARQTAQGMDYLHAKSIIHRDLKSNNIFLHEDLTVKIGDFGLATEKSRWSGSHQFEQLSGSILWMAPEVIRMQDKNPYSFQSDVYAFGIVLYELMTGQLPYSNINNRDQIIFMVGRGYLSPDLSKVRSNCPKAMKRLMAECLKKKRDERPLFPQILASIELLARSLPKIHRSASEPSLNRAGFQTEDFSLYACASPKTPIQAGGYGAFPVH

As for `COc1cc2ncnc(Oc3cccc(NC(=O)Nc4cc(C(C)(C)C)on4)c3)c2cc1OCCN1CCOCC1` [Ex 20, 1-(5-tert-butylisoxazol-3-yl)-3-(3-(7-methoxy-6-(2-morpholinoethoxy)quinazolin-4-yloxy)phenyl)urea], on mutant BRAF kinase, the Kd is below 250 nM. For the same compound, in experiment [1] (290 distinct kinases), the S35 result is “C (0.20 < C ≦ 0.40)”.

In the case of `COc1cc2ncnc(Oc3cccc(NC(=O)Nc4cc(C(C)(C)C)on4)c3)c2cc1OCCCN1CCN(C)CC1` [Ex 21, 1-(5-tert-butylisoxazol-3-yl)-3-(3-(7-methoxy-6-(3-(4-methylpiperazin-1-yl)propoxy)quinazolin-4-yloxy)phenyl)urea], the Kd on mutant BRAF kinase was below 250 nM. Besides, the S35 entry in experiment [1] (290 distinct kinases) is on record as “D (D > 0.40)”.

For `COc1cc2ncnc(Oc3cccc(NC(=O)Nc4cc(C(C)(C)C)on4)c3)c2cc1OCCCN1CCCCC1` [Ex 23, 1-(5-tert-butylisoxazol-3-yl)-3-(3-(7-methoxy-6-(3-(piperidin-1-yl)propoxy)quinazolin-4-yloxy)phenyl)urea], the Kd at mutant BRAF kinase was below 250 nM. In addition, in experiment [1] (290 distinct kinases), the S35 entry is “D (D > 0.40)”.

Take `COc1cc2ncnc(Oc3cccc(NC(=O)Nc4cc(C(C)(C)C)on4)c3)c2cc1OCCCN1CCC(CO)CC1` [Ex 24, 1-(5-tert-butylisoxazol-3-yl)-3-(3-(6-(3-(4-(hydroxymethyl)piperidin-1-yl)propoxy)-7-methoxyquinazolin-4-yloxy)phenyl)urea]: the Kd on mutant BRAF kinase is below 250 nM. The S35 result in experiment [1] (290 distinct kinases) is “D (D > 0.40)”.

For the compound `COc1cc2ncnc(Oc3cccc(NC(=O)Nc4cc(C(C)(C)C)on4)c3)c2cc1OCCCN1CCN(S(C)(=O)=O)CC1` [Ex 25, 1-(5-tert-butylisoxazol-3-yl)-3-(3-(7-methoxy-6-(3-(4-(methylsulfonyl)piperazin-1-yl)propoxy)quinazolin-4-yloxy)phenyl)urea], on mutant BRAF kinase, the Kd is below 250 nM. Further, in experiment [1] (290 distinct kinases), the S35 result is on record as “D (D > 0.40)”.

For the compound `COc1cc2c(Oc3cccc(NC(=O)Nc4cc(C(C)(C)C)on4)c3)ncnc2cc1OCCCN1CCOCC1` [Ex 27, 1-(5-tert-butylisoxazol-3-yl)-3-(3-(6-methoxy-7-(3-morpholinopropoxy)quinazolin-4-yloxy)phenyl)urea], the equilibrium dissociation constant (Kd) on mutant BRAF kinase is below 250 nM. Also, the S35 result in experiment [1] (290 distinct kinases) is reported as “D (D > 0.40)”.

In the case of `COc1cc2c(Oc3cccc(NC(=O)Nc4cc(C(C)(C)C)on4)c3)ncnc2cc1OCCCN1CCC(CO)CC1` [Ex 29], on mutant BRAF kinase, the Kd is below 250 nM. Moreover, the S35 entry in experiment [1] (290 distinct kinases) is on record as “D (D > 0.40)”.

Regarding `COc1cc2c(Oc3cccc(NC(=O)Nc4cc(C(C)(C)C)on4)c3)ncnc2cc1OCCCN1CCC(O)C1` (stereo not drawn) [Ex 31, 1-(5-tert-butyl-isoxazol-3-yl)-3-(3-{7-[3-(3-hydroxy-pyrrolidin-1-yl)-propoxy]-6-methoxy-quinazolin-4-yloxy}-phenyl)-urea], the Kd on mutant BRAF kinase is below 250 nM. In addition, in experiment [1] (290 distinct kinases), the S35 result is on record as “D (D > 0.40)”.

Turning to `COc1cc2c(Oc3cccc(NC(=O)Nc4cc(C(C)(C)C)on4)c3)ncnc2cc1OCCCN1CCN(S(C)(=O)=O)CC1` [Ex 32, 1-(5-tert-butylisoxazol-3-yl)-3-(3-(6-methoxy-7-(3-(4-(methylsulfonyl)piperazin-1-yl)propoxy)quinazolin-4-yloxy)phenyl)urea], the Kd on mutant BRAF kinase is below 250 nM. The S35 result in experiment [1] (290 distinct kinases) is “D (D > 0.40)”.

With `COc1cc2c(Oc3cccc(NC(=O)Nc4cc(C(C)(C)C)on4)c3)ncnc2cc1OCCCN1CC[C@H](O)C1` [Ex 33, (S)-1-(5-tert-butylisoxazol-3-yl)-3-(3-(7-(3-(3-hydroxypyrrolidin-1-yl)propoxy)-6-methoxyquinazolin-4-yloxy)phenyl)urea], the Kd on mutant BRAF kinase is below 250 nM. Also, in experiment [1] (setting [2]), the S35 result is reported as “D* (D > 0.40)”.

Regarding `COc1cc2c(Oc3cccc(NC(=O)Nc4cc(C(C)(C)C)on4)c3)ncnc2cc1OCCCN1CC[C@@H](O)C1` [Ex 34, (R)-1-(5-tert-Butylisoxazol-3-yl)-3-(3-(7-(3-(3-hydroxypyrrolidin-1-yl)propoxy)-6-methoxyquinazolin-4-yloxy)phenyl)urea], at mutant BRAF kinase, the Kd is below 250 nM. Besides, the S35 result in experiment [1] (setting [2]) is “D* (D > 0.40)”.

Regarding `COc1cc2c(Oc3cccc(NC(=O)Nc4cc(C(C)(C)C)on4)c3)ncnc2cc1OCCN1CCOCC1` [Ex 35, 1-(5-tert-butylisoxazol-3-yl)-3-(3-(6-methoxy-7-(2-morpholinoethoxy)quinazolin-4-yloxy)phenyl)urea], the Kd on mutant BRAF kinase is below 250 nM. The S35 entry in experiment [1] (290 distinct kinases) is reported as “C (0.20 < C ≦ 0.40)”.

With `COc1cc2c(Oc3cccc(NC(=O)Nc4cc(C(C)(C)C)on4)c3)ncnc2cc1OCCN1CCN(C)CC1` [Ex 36, 1-(5-tert-butylisoxazol-3-yl)-3-(3-(6-methoxy-7-(2-(4-methylpiperazin-1-yl)ethoxy)quinazolin-4-yloxy)phenyl)urea], the dissociation constant Kd at mutant BRAF kinase is below 250 nM. For the same compound, the S35 entry in experiment [1] (290 distinct kinases) is given as “C (0.20 < C ≦ 0.40)”.

`COc1cc2c(Oc3cccc(NC(=O)Nc4cc(C(C)(C)C)on4)c3)ncnc2cc1OCCN1CCC(CO)CC1` [Ex 37, 1-(5-tert-butyl-isoxazol-3-yl)-3-(3-{7-[2-(4-hydroxymethyl-piperidin-1-yl)-ethoxy]-6-methoxy-quinazolin-4-yloxy}-phenyl)-urea]: the Kd on mutant BRAF kinase is below 250 nM. The S35 result in experiment [1] (290 distinct kinases) was “C (0.20 < C ≦ 0.40)”.

For `COc1cc2c(Oc3cccc(NC(=O)Nc4cc(C(C)(C)C)on4)c3)ncnc2cc1OCCN1CCN(CCO)CC1` [Ex 38, 1-(5-tert-butylisoxazol-3-yl)-3-(3-(7-(2-(4-(2-hydroxyethyl)piperazin-1-yl)ethoxy)-6-methoxyquinazolin-4-yloxy)phenyl)urea], the dissociation constant Kd on mutant BRAF kinase is below 250 nM. The S35 entry in experiment [1] (290 distinct kinases) is on record as “D (D > 0.40)”.

With `COc1cc2c(Oc3cccc(NC(=O)Nc4cc(C(C)(C)C)on4)c3)ncnc2cc1OCCN1CCS(=O)(=O)CC1` [Ex 39, 1-(5-tert-butyl-isoxazol-3-yl)-3-(3-{7-[2-(1,1-dioxo-116-thiomorpholin-4-yl)-ethoxy]-6-methoxy-quinazolin-4-yloxy}-phenyl)-urea], the Kd at mutant BRAF kinase is below 250 nM. In addition, the S35 result in experiment [1] (290 distinct kinases) is given as “C (0.20 < C ≦ 0.40)”.

For `COCCOc1ccc2c(Oc3cccc(NC(=O)Nc4cc(C(C)(C)C)on4)c3)ncnc2c1` [Ex 43, 1-(5-tert-butylisoxazol-3-yl)-3-(3-(7-(2-methoxyethoxy)quinazolin-4-yloxy)phenyl)urea], at mutant BRAF kinase, the Kd is below 250 nM. The S35 result in experiment [1] (290 distinct kinases) is “C (0.20 < C ≦ 0.40)”.

In the case of `COCCOc1cc2c(Sc3cccc(NC(=O)Nc4cc(C(C)(C)C)on4)c3)ncnc2cc1OC` [Ex 45, 1-(5-tert-butylisoxazol-3-yl)-3-(3-(7-methoxy-6-(2-methoxyethoxy)quinazolin-4-ylthio)phenyl)urea], the Kd on mutant BRAF kinase is below 250 nM. Moreover, in experiment [1] (290 distinct kinases), the S35 result is “C (0.20 < C ≦ 0.40)”.

Regarding `COc1cc2ncnc(Sc3cccc(NC(=O)Nc4cc(C(C)(C)C)on4)c3)c2cc1OC` [Ex 46, 1-(5-tert-butylisoxazol-3-yl)-3-(3-(6,7-dimethoxyquinazolin-4-ylthio)phenyl)urea], the Kd on mutant BRAF kinase is below 250 nM. Moreover, the S35 entry in experiment [1] (290 distinct kinases) is recorded as “C (0.20 < C ≦ 0.40)”.

As for `COCCOc1cc2ncnc(Sc3cccc(NC(=O)Nc4cc(C(C)(C)C)on4)c3)c2cc1OC` [Ex 52, 1-(5-tert-butylisoxazol-3-yl)-3-{3-[6-methoxy-7-(2-methoxyethoxy)quinazolin-4-ylthio]phenyl}urea hydrochloride], the equilibrium dissociation constant (Kd) at mutant BRAF kinase was below 250 nM. For the same compound, in experiment [1] (290 distinct kinases), the S35 entry is reported as “C (0.20 < C ≦ 0.40)”.

On to `COCCOc1cc2ncnc(Sc3cccc(NC(=O)Nc4cc(C(C)(C)C)on4)c3)c2cc1OCCOC` [Ex 53, 1-{3-[6,7-bis(2-methoxyethoxy)quinazolin-4-ylthio]phenyl}-3-(5-tert-butylisoxazol-3-yl)urea hydrochloride], for which the Kd at mutant BRAF kinase is below 250 nM. In experiment [1] (290 distinct kinases), the S35 result is given as “C (0.20 < C ≦ 0.40)”.

With `CCOc1cc2c(Sc3cccc(NC(=O)Nc4cc(C(C)(C)C)on4)c3)ncnc2cc1OC` [Ex 56, 1-(5-tert-butylisoxazol-3-yl)-3-(3-(6-ethoxy-7-methoxyquinazolin-4-ylthio)phenyl)urea], at mutant BRAF kinase, the dissociation constant (Kd) was below 250 nM. In experiment [1] (290 distinct kinases), the S35 result is given as “B (0.10 < B ≦ 0.20)”.

As for `COc1cc2ncnc(Sc3cccc(NC(=O)Nc4cc(C(C)(C)C)on4)c3)c2cc1OCCCN1CCCCC1` [Ex 57, 1-(5-tert-butylisoxazol-3-yl)-3-(3-(7-methoxy-6-(3-(piperidin-1-yl)propoxy)quinazolin-4-ylthio)phenyl)urea], the Kd at mutant BRAF kinase was below 250 nM. The S35 entry in experiment [1] (290 distinct kinases) is listed as “C (0.20 < C ≦ 0.40)”.

For the compound `COc1cc2ncnc(Sc3cccc(NC(=O)Nc4cc(C(C)(C)C)on4)c3)c2cc1OCCCN1CCC(CO)CC1` [Ex 58, 1-(5-tert-butylisoxazol-3-yl)-3-(3-(6-(3-(4-(hydroxymethyl)piperidin-1-yl)propoxy)-7-methoxyquinazolin-4-ylthio)phenyl)urea], the Kd at mutant BRAF kinase was below 250 nM. The S35 entry in experiment [1] (290 distinct kinases) was “D (D > 0.40)”.

Consider `COc1cc2ncnc(Sc3cccc(NC(=O)Nc4cc(C(C)(C)C)on4)c3)c2cc1OCCCN1CCN(C)CC1` [Ex 59, 1-(5-tert-butylisoxazol-3-yl)-3-(3-(7-methoxy-6-(3-(4-methylpiperazin-1-yl)propoxy)quinazolin-4-ylthio)phenyl)urea], for which, on mutant BRAF kinase, the equilibrium dissociation constant (Kd) was below 250 nM. Moreover, the S35 entry in experiment [1] (290 distinct kinases) was “D (D > 0.40)”.

For `COc1cc2ncnc(Sc3cccc(NC(=O)Nc4cc(C(C)(C)C)on4)c3)c2cc1OCCCN1CCN(S(C)(=O)=O)CC1` [Ex 60, 1-(5-tert-butylisoxazol-3-yl)-3-(3-(7-methoxy-6-(3-(4-(methylsulfonyl)piperazin-1-yl)propoxy)quinazolin-4-ylthio)phenyl)urea], at mutant BRAF kinase, the Kd was below 250 nM. The S35 entry in experiment [1] (290 distinct kinases) is reported as “C (0.20 < C ≦ 0.40)”.

Regarding `COc1cc2ncnc(Sc3cccc(NC(=O)Nc4cc(C(C)(C)C)on4)c3)c2cc1OCCN1CCC(CO)CC1` [Ex 66, 1-(5-tert-butylisoxazol-3-yl)-3-(3-(6-(2-(4-(hydroxymethyl)piperidin-1-yl)ethoxy)-7-methoxyquinazolin-4-ylthio)phenyl)urea], the dissociation constant (Kd) at mutant BRAF kinase was below 250 nM. The S35 entry in experiment [1] (290 distinct kinases) is on record as “C (0.20 < C ≦ 0.40)”.
